pIC50: −log10 of the molar value.
target: T1, receptor interacting protein kinase 1 (GST-hRIPK1 (8-327)) (Homo sapiens, UniProt Q13546); test: Fluorescent Polarization Binding (FP Binding) assay; conditions: 10 nM GST-hRIPK1 (8-327), 5 nM fluorescent-labeled ligand, 30 min at RT
T1 construct: GST-hRIPK1 (8-327) enzyme was generated by Proteros GmbH by Baculovirus expression system
T1 sequence (Q13546 8-327): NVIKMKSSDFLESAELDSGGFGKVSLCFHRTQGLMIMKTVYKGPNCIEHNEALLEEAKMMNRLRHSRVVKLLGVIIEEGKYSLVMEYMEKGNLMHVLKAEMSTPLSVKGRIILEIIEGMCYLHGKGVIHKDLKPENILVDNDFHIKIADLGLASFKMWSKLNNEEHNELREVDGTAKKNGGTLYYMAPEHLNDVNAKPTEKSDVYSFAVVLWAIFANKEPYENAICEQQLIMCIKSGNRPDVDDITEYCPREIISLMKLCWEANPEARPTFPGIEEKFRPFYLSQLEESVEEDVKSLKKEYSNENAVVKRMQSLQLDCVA
Protocol: Fluorescent Polarization Binding (FP Binding) assay (Berger S. B. et al. (2015) Cell Death Discovery, 1: 15009; Maki J. L. et al. (2012) Anal Biochem., 427(2): 164-174) was performed in polystyrene low volume 384-well black plate, at Room Temperature (RT) in a final volume of 10.1 μl/well using 10 nM of GST-hRIPK1 (8-327) enzyme and 5 nM of fluorescent-labeled ligand (14-(2-{[3-({2-{[4-(cyanomethyl)phenyl]amino}-6-[(5-cyclopropyl-1H-pyrazol-3-yl)amino]-4-pyrimidinyl}amino) propyl]amino}-2-oxoethyl)-16,16,18,18-tetramethyl-6,7,7a,8a,9,10,16,18-octahydrobenzo[2″3″]indolizino[8″, 0.7″:5′,6′]pyrano[3′,2′:3,4]pyrido[1,2-a]indol-5-ium-2-sulfonate.
Test compounds were serially diluted in DMSO at 100 fold final concentrations in the assay (1% DMSO final). In each well of a 384-well Plate were dispensed 0.1 μL of compound solution (or DMSO for controls) followed by 5 μL of GST-hRIPK1 (8-327) at twice the final concentrations in assay-buffer (50 mM HEPES pH 7.5, 10 mM NaCl, 50 mM MgCl2, 0.02% CHAPS, 0.5 mM DTT and 0.01% Pluronic F127). For negative control the enzyme addition was replaced by assay buffer only.
After addition of 5 μL of fluorescent-labeled ligand at twice the final concentrations in assay buffer, the plate was incubated at RT for 30 min. At the end, the binding was measured as FP value with the Envision (PerkinElmer) plate reader using filter for an excitation λ=531 nm FP and an emission λ=595 nm FP (S & P-pol).
Test compound inhibition was expressed as percent inhibition of internal assay controls. For concentration response curves, normalized data is fit and IC50 determined using XL-fit (IDBS) for Excel. IC50 were averaged to determine a mean value, for a minimum of two independent experiments.
Receptor interacting protein kinase 1 activity of exemplary compounds was determined according to the above general procedures.
Receptor interacting protein kinase 1 activity of certain compounds was determined according to the above general procedures.

| SMILES | pIC50 |
| --- | --- |
| Cc1cnc([C@@H]2CCON2C(=O)C(C)C(F)(F)F)cn1 (single isomer, unassigned) [Compound 130] | > 6.00 |
| CC1(C(=O)N2OCC[C@H]2c2ccc(F)cc2)CCCO1 (single isomer, unassigned) [Compound 136] | 5.00 to 6.00 |
| CC1(C(=O)N2OCC[C@H]2c2ccc(F)cc2)CCCO1 (single isomer, unassigned) [Compound 137] | 5.00 to 6.00 |
| CC(C(=O)N1OCC[C@H]1c1ccc(F)nc1)C(F)(F)F (single isomer, unassigned) [Compound 162] | > 6.00 |
| CC(C(=O)N1OCC[C@H]1c1ccc(F)nc1)C(F)(F)F (single isomer, unassigned) [Compound 163] | > 6.00 |
| CC(C(=O)N1OCC[C@H]1c1ccc(C#N)cc1)C(F)(F)F (single isomer, unassigned) [Compound 179] | > 6.00 |
| CC(C(=O)N1OCC[C@H]1c1ccc(C#N)cc1)C(F)(F)F (single isomer, unassigned) [Compound 180] | > 6.00 |
| CC(OC(F)(F)F)C(=O)N1OCC[C@H]1c1ccc(F)cc1 (single isomer, unassigned) [Compound 183] | > 6.00 |
| CC(OC(F)(F)F)C(=O)N1OCC[C@H]1c1ccc(F)nc1 (single isomer, unassigned) [Compound 184] | > 6.00 |
| CC(OC(F)(F)F)C(=O)N1OCC[C@H]1c1ccc(F)nc1 (single isomer, unassigned) [Compound 185] | 5.00 to 6.00 |
| Cc1noc(C)c1C(C)C(=O)N1OCC[C@H]1c1ccc(F)cc1 (single isomer, unassigned) [Compound 186] | 5.00 to 6.00 |
| CC(C(=O)N1OCC[C@H]1c1ccc(F)cc1)C(F)F (single isomer, unassigned) [Compound 188] | > 6.00 |
| CC(CC#N)C(=O)N1OCC[C@H]1c1ccc(C#N)cc1 (single isomer, unassigned) [Compound 209] | > 6.00 |
| CC1(C(=O)N2OCC[C@H]2c2ccc(F)c(F)c2)CCOC1 (single isomer, unassigned) [Compound 211] | > 6.00 |
| CC1(C(=O)N2OCC[C@H]2c2ccc(F)c(F)c2)CCOC1 (single isomer, unassigned) [Compound 212] | > 6.00 |
| CC1CC1C(=O)N1OCC[C@H]1c1ccc(C#N)cc1 (single isomer, unassigned) [Compound 215] | > 6.00 |
| CC1CC1C(=O)N1OCC[C@H]1c1ccc(C#N)cc1 (single isomer, unassigned) [Compound 216] | 5.00 to 6.00 |
| Cc1ncc([C@@H]2CCON2C(=O)C(C)C2CC2)cc1F (single isomer, unassigned) [Compound 218] | > 6.00 |
| CC(CC(F)F)C(=O)N1OCC[C@H]1c1ccc(C#N)cc1 (single isomer, unassigned) [Compound 233] | > 6.00 |
| O=C(c1cnn2ccccc12)N1OCC[C@H]1c1ccccc1 [Compound 21, (3S)-3-phenyl-2-{pyrazolo[1,5-a]pyridine-3-carbonyl}-1,2-oxazolidine] | 5.00 to 6.00 |
| O=C(N1OCC[C@H]1c1ccc(F)cc1)C1(C(F)(F)F)CCCC1 [Compound 29, (3S)-3-(4-fluorophenyl)-2-[1-(trifluoromethyl)cyclo-pentanecarbonyl]-1,2-oxazolidine] | > 6.00 |
| O=C(N1OCC[C@H]1c1ccc(F)cc1)C12CC(C1)C2 [Compound 32, (3S)-2-{Bicyclo[1.1.1]pentane-1-carbonyl}-3-(4-fluorophenyl)-1,2-oxazolidine] | > 6.00 |
| O=C(N1OCC[C@H]1c1ccc(F)cc1)C1(C(F)(F)F)CC1 [Compound 37, (3S)-3-(4-Fluorophenyl)-2-[1-(trifluoromethyl)cyclo-propanecarbonyl]-1,2-oxazolidine] | > 6.00 |
| O=C(N1OCC[C@H]1c1ccc(F)cc1)C1(C(F)(F)F)CCC1 [Compound 39, (3S)-3-(4-Fluorophenyl)-2-[1-(trifluoromethyl)cyclo-butanecarbonyl]-1,2-oxazolidine] | > 6.00 |
| CN1CC(C)(C(=O)N2OCC[C@H]2c2ccc(F)cc2)C1 [Compound 42, (3S)-2-(1,3-Dimethylazetidine-3-carbonyl)-3-(4-fluorophenyl)-1,2-oxazolidine] | < 5.00 |

The next lines start with the values.

| pIC50 | SMILES |
| --- | --- |
| > 6.00 | CC1(C(=O)N2OCC[C@H]2c2ccc(F)nc2)CCOC1 (single isomer, unassigned) [Compound 141] |
| > 6.00 | CC1(C(=O)N2OCC[C@H]2c2ccc(F)nc2)CCOC1 (single isomer, unassigned) [Compound 142] |
| > 6.00 | CC(C(=O)N1OCC[C@H]1c1ccc(F)cc1)C(F)F (single isomer, unassigned) [Compound 189] |
| 5.00 to 6.00 | CC(CC#N)C(=O)N1OCC[C@H]1c1ccc(C#N)cc1 (single isomer, unassigned) [Compound 210] |
| > 6.00 | CC(C(=O)N1OCC[C@H]1c1ccc(C#N)cc1)C1CC1 (single isomer, unassigned) [Compound 213] |
| > 6.00 | CC(C(=O)N1OCC[C@H]1c1ccc(C#N)cc1)C1CC1 (single isomer, unassigned) [Compound 214] |
| > 6.00 | Cc1ncc([C@@H]2CCON2C(=O)C(C)C2CC2)cc1F (single isomer, unassigned) [Compound 217] |
| > 6.00 | CC(CC(F)(F)F)C(=O)N1OCC[C@H]1c1ccc(C#N)cc1 (single isomer, unassigned) [Compound 230] |
| > 6.00 | CC(CC(F)(F)F)C(=O)N1OCC[C@H]1c1ccc(C#N)cc1 (single isomer, unassigned) [Compound 231] |
| > 6.00 | CC(CC(F)F)C(=O)N1OCC[C@H]1c1ccc(C#N)cc1 (single isomer, unassigned) [Compound 232] |
| > 6.00 | O=C(C1CC1(F)F)N1OCC[C@H]1c1ccc(F)cc1 (single isomer, unassigned) [Compound 236] |
| > 6.00 | O=C(C1CC1(F)F)N1OCC[C@H]1c1ccc(F)cc1 (single isomer, unassigned) [Compound 237] |
| < 5.00 | C[C@H](O)C(=O)N1OCC[C@H]1c1ccccc1 [Compound 15, (2S)-2-Hydroxy-1-[(3S)-3-phenyl-1,2-oxazolidin-2-yl]propan-1-one] |
| > 6.00 | CC(C)(C)C(=O)N1OCC[C@@H]1c1cccc(F)c1F [Compound 30, 1-[(3R)-3-(2,3-Difluorophenyl)-12-oxazolidin-2-yl]-2,2-dimethylpropan-1-one] |
| > 6.00 | CC(C)(C)C(=O)N1OCC[C@H]1c1cccc(F)c1F [Compound 31, 1-[(3S)-3-(2,3-Difluorophenyl)-1,2-oxazolidin-2-yl]-2,2-dimethylpropan-1-one] |
| > 6.00 | CC1(C(=O)N2OCC[C@H]2c2ccc(F)cc2)COC1 [Compound 33, (3S)-3-(4-Fluorophenyl)-2-(3-methyloxetane-3-carbonyl)-1,2-oxazolidine] |
| > 6.00 | O=C(N1OCC[C@H]1c1ccc(F)cc1)C1(F)CC1 [Compound 34, (3S)-2-(1-Fluorocyclopropane-carbonyl)-3-(4-fluorophenyl)-1,2-oxazolidine] |
| > 6.00 | CCC1(C(=O)N2OCC[C@H]2c2ccc(F)cc2)COC1 [Compound 38, (3S)-2-(3-Ethyloxetane-3-carbonyl)-3-(4-fluorophenyl)-1,2-oxazolidine] |
| < 5.00 | CC1(C(=O)N2OCC[C@H]2c2ccc(F)cc2)CNC1 [Compound 43, (3S)-3-(4-Fluorophenyl)-2-(3-methylazetidine-3-carbonyl)-1,2-oxazolidine] |

— patent US10709692B2, “Isoxazolidine derived inhibitors of receptor interacting protein kinase 1 (RIPK1)” (Denali Therapeutics Inc., priority 2015, dated 2020)
